From the supplement of paper PMC10307832

Legend:
Assay in all cases: relative viability (nuclei count vs DMSO), 5 days (fraction); higher = more cells survive
Ibrutinib + Decitabine = compound: C=CC(=O)N1CCC[C@@H](n2nc(-c3ccc(Oc4ccccc4)cc3)c3c(N)ncnc32)C1 [Ibrutinib] + Nc1ncn([C@H]2C[C@H](O)[C@@H](CO)O2)c(=O)n1 [Decitabine] (partner 2 µM)
In short: (§1)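 The day after seeding in 1536-well plates, lung cancer cell lines were treated by pin tool with a single drug, or with a fixed anchor-drug dose together with five library-drug doses (not always all listed) in √10 steps. After 5 days, a combined fix-and-stain solution (final 0.05% Triton X-100, 1% formaldehyde, 1 ug/ml Hoechst) was added. Nuclei counted on 4× images gave relative viability as treated counts over vehicle counts, reported as the median of duplicate plates.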

BMX-IN-1 + Alpelisib = compound: C=CC(=O)Nc1cc(-n2c(=O)ccc3cnc4ccc(-c5ccc(NS(C)(=O)=O)cc5)cc4c32)ccc1C [BMX-IN-1] + Cc1nc(NC(=O)N2CCC[C@H]2C(N)=O)sc1-c1ccnc(C(C)(C)C(F)(F)F)c1 [Alpelisib] (partner 2 µM)
In short: as §1

BMX-IN-1 + Phenformin = compound: C=CC(=O)Nc1cc(-n2c(=O)ccc3cnc4ccc(-c5ccc(NS(C)(=O)=O)cc5)cc4c32)ccc1C [BMX-IN-1] + N=C(N)NC(=N)NCCc1ccccc1 [Phenformin] (partner 250 µM)
In short: as §1

PAC-1 + Trametinib = compound: C=CCc1cccc(/C=N/NC(=O)CN2CCN(Cc3ccccc3)CC2)c1O [PAC-1] + CC(=O)Nc1cccc(-n2c(=O)n(C3CC3)c(=O)c3c(Nc4ccc(I)cc4F)n(C)c(=O)c(C)c32)c1 [Trametinib] (partner 0.02 µM)
In short: as §1

SK-MES-1 gave a relative viability (Ibrutinib + Decitabine; first compound 0.005 µM) of 0.39, a relative viability (Ibrutinib + Decitabine; first compound 0.01581 µM) of 0.359 and a relative viability (Ibrutinib + Decitabine; first compound 0.05 µM) of 0.335. The relative viability (Ibrutinib + Decitabine; first compound 0.1581 µM) was 0.364, the relative viability (Ibrutinib + Decitabine; first compound 0.5 µM) was 0.359 and the relative viability (BMX-IN-1 + Alpelisib; first compound 0.02 µM) was 1.09. For the same cell line, the relative viability (BMX-IN-1 + Alpelisib; first compound 0.2 µM) was 0.947, the relative viability (BMX-IN-1 + Alpelisib; first compound 0.6325 µM) was 0.911 and the relative viability (BMX-IN-1 + Alpelisib; first compound 2 µM) was 0.88. It also gave a relative viability (BMX-IN-1 + Phenformin; first compound 0.02 µM) of 0.711, a relative viability (BMX-IN-1 + Phenformin; first compound 0.2 µM) of 0.792 and a relative viability (BMX-IN-1 + Phenformin; first compound 0.6325 µM) of 0.695. It also gave a relative viability (BMX-IN-1 + Phenformin; first compound 2 µM) of 0.724, a relative viability (PAC-1 + Trametinib; first compound 0.02 µM) of 0.498 and a relative viability (PAC-1 + Trametinib; first compound 0.06325 µM) of 0.529. It also gave a relative viability (PAC-1 + Trametinib; first compound 0.2 µM) of 0.543 and a relative viability (PAC-1 + Trametinib; first compound 2 µM) of 0.622.
